Test results from publication PMC4749225, “Azidobupramine, an Antidepressant-Derived Bifunctional Neurotransmitter Transporter Ligand Allowing Covalent Labeling and Attachment of Fluorophores” (PLoS ONE, 2016).
Read-outs that look alike come from different tables or passages of the source. One block for each molecule: values may come before it.

Tests used:
[1] = target: T1, rSERT (Rattus norvegicus, UniProt P31652); experiment: Radioligand binding assay (RBA), competition with [3H]-citalopram, membranes of T-REx-SERT cells; details: for IC50: 0.5 nM [3H]-citalopram, 34°C, 60 min; for Ki: IC50 converted to Ki according to Cheng-Prusoff
T1 construct: expressed in transfected cells; host or cells: T-REx-SERT cells (T-REx 293 based, tetracycline-inducible), gift of C.G. Tate
Protocol: Tetracycline induced T-REx-SERT cells were mechanically disrupted with a hypotonic Tris-buffer (50 mM Tris, pH 7.9, proteinase inhibitor) in a two step procedure: dounce-homogenisation (Potter S, B.Braun, Melsungen, Germany) followed by an ultrasound treatment (sonifier W-250, Branson, CT, USA). Homogenates were centrifuged first at 800 rcf (10’, 4°C), followed by a second centrifugation step at 100,000 rcf (60’, 4°C). The resulting pellet was re-suspended in reaction-buffer RB1 (50 mM Tris-HCl, 150 mM NaCl, 5 mM KCl, proteinase inhibitor, pH 7.9), and stored at -80°C after protein determination (Pierce® BCA Protein Assay, Thermo Scientific, IL, USA).
Drugs were diluted in DMSO as solvent. Incubation was carried out at 34°C for 60’, and terminated by rapid filtration over polyethyleneimine preincubated GF/C filters using a Brandell MWXR-97TI cell harvester (Gaithersburg, MD, USA). Filters were washed three times with 2 ml of ice cold reaction-buffer RB1 and then incubated with scintillation liquid; radioactivity was measured by beta counting (MicroBeta, PerkinElmer LAS, Boston, MA, USA).

[2] = target: T1, rSERT; experiment: PAL and CuAAC fluorescence assay of 17 on rSERT-enriched material immobilized on ANTI-FLAG M2 affinity gel, with competitors; type: binding; details: for decrease in binding signal of 17 at enriched rSERT by competitor: 17 1 μM, competitor 1 mM (1000 fold molar excess), PAL then CuAAC rhodamine fluorescence
Protocol: (§2) For all these experiments, rSERT was chosen as model target. The PAL-reaction was conducted either using rSERT-enriched protein material or living cells. In both cases, the subsequent CuAAC-reaction took place after the double-tagged rSERT-His10-FLAG was immobilized on ANTI-FLAG® M2 Affinity-gel (SigmaAldrich, MO, USA).
For the interaction analysis of azidobupramine (17) with rSERT-enriched material, 1 mg of membrane preparation was solubilized in reaction-buffer RB3 (52.6 mM Tris/HCl, 126.4 mM NaCl, 5.26 mM KCl, 1% Triton X-100, proteinase inhibitor, pH 7.9). Then rSERT was immobilized on ANTI-FLAG® M2 Affinity-gel (over night, 4°C, constant agitation), and unbound protein was removed by three washing steps with reaction-buffer RB4 (25 mM HEPES/NaOH, 126.4 mM NaCl, 5.26 mM KCl, proteinase inhibitor, pH 7.9). […] This was followed by UV-light exposure (312 nm, 2x 45”, RT) using the Dual Transilluminator from Stratagene (5x8 Watt, La Jolla, CA, USA), and copper mediated click reaction (60 μM Rhodamine-azide, 2.5 mM ascorbic acid, 250 μM CuSO4, and 500 μM bis[(tertbutyltriazoyl)methyl]-[(2-carboxymethyltriazoyl)methyl]amine (BTTAA), 60’, RT, constant agitation) [31].
Within the fluorescence based interaction studies of 17 with rSERT, the fluorescence signal was recorded with the ChemiDoc MP detection-system and analyzed using ImageLab (BioRad, CA, USA); for quantification, only those fluorescent signals were taken that correspond to Western blot verified rSERT (between 70-100 kDa). Recorded fluorescent signals were normalized to the Western-blot signal of rSERT.

[3] = target: T1, rSERT; experiment: PAL of 17 in living T-REx-SERT cells followed by CuAAC rhodamine labelling, with competitor; type: cell-based; details: 17 10 μM; UV-light 312 nm
Protocol: T-REx-SERT cells expressing rSERT-His10-FLAG were kindly provided by C.G. Tate (MRC Laboratory of Molecular Biology, Cambridge, UK) [27]; cells were cultivated in suspension (FreeStyle™ 293 Expression medium, 10% FBS, antibiotic-antimycotic, and pyruvate); for selection purpose, 5 μg/ml blasticidin and 200 μg/ml zeocin were used; expression was induced by adding 1 μg/ml tetracycline for 5 days.
as §2
This was followed by UV-light induced covalent linkage (312 nm, 2x 60”, RT). The further processing was as described above, i.e. membrane preparation, solubilization and immobilization of rSERT to ANTI-FLAG® M2 Affinity-gel, CuAAC-reaction followed by protein elution, and SDS-PAGE.
Within the fluorescence based interaction studies of 17 with rSERT, the fluorescence signal was recorded with the ChemiDoc MP detection-system and analyzed using ImageLab (BioRad, CA, USA); for quantification, only those fluorescent signals were taken that correspond to Western blot verified rSERT (between 70-100 kDa). Recorded fluorescent signals were normalized to the Western-blot signal of rSERT. […]

[4] = target: T2, hNET (Homo sapiens, UniProt P23975); experiment: Competitive MS Binding Assay (MSBA), (1R,3S)-indatraline as marker, HEK293 membrane fractions; details: read-out: Ki, NET
T2 construct: expressed in transfected cells
Protocol: (§1) Competitive MSBAs to characterize the affinity of test compounds employing (1R,3S)-indatraline as a marker for hDAT, hNET and hSERT, respectively, were performed exactly as described by Grimm et al.. For this purpose, membrane fractions obtained from HEK293 cell lines stably expressing the corresponding target protein were incubated in presence of a fixed concentration of (1R,3S)-indatraline together with varying concentrations of test compounds in 96 well plates. After separation of the non-bound marker by vacuum filtration from the binding samples, bound (1R,3S)-indatraline remaining on the filter was eluted with acetonitrile (containing internal standard) and quantified by LC-ESI-MS/MS. Subsequently, inhibition of (1R,3S)-indatraline binding caused by test compounds could be analyzed essentially in the same way as described for radioligand binding assays.

[5] = target: T3, hDAT (Homo sapiens, UniProt Q01959); experiment: as above
T3 construct: expressed in transfected cells
Protocol: as §1

[6] = target: T4, hSERT (Homo sapiens, UniProt P31645); experiment: as above
T4 construct: expressed in transfected cells
Protocol: as §1

T1 sequence (P31652 whole entry): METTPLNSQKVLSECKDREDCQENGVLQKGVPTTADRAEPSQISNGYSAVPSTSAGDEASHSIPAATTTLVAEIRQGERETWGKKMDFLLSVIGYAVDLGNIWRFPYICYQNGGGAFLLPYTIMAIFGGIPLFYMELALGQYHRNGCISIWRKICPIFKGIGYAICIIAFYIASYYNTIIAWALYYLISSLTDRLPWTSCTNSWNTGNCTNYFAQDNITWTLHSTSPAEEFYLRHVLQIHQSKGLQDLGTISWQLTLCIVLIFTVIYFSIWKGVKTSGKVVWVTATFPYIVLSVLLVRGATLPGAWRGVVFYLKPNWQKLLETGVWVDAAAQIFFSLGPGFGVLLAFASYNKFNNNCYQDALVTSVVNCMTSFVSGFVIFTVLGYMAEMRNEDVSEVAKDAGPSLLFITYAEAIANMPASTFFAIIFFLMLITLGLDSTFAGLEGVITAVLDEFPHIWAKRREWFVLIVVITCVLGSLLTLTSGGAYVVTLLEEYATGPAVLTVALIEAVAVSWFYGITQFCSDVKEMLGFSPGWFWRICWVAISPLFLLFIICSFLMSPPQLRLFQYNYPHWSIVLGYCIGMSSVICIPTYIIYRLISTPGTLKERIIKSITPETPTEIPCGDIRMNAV
T3 sequence (Q01959 whole entry): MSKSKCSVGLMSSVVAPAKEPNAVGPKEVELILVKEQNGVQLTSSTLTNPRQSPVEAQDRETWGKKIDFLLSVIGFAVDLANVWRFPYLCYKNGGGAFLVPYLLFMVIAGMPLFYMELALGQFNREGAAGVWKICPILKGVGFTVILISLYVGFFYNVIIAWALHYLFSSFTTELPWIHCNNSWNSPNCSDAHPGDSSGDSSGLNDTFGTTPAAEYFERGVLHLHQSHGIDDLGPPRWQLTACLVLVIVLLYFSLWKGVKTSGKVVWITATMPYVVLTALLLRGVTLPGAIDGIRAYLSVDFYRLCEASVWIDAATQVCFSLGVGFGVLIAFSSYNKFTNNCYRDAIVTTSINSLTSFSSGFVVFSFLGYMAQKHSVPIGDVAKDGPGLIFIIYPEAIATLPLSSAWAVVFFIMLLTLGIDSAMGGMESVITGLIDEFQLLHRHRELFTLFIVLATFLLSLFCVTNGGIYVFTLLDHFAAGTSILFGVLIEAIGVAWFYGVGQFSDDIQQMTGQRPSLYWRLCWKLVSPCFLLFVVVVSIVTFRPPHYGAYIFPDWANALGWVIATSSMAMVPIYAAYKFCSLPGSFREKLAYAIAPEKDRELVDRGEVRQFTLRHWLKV
T4 sequence (P31645 whole entry): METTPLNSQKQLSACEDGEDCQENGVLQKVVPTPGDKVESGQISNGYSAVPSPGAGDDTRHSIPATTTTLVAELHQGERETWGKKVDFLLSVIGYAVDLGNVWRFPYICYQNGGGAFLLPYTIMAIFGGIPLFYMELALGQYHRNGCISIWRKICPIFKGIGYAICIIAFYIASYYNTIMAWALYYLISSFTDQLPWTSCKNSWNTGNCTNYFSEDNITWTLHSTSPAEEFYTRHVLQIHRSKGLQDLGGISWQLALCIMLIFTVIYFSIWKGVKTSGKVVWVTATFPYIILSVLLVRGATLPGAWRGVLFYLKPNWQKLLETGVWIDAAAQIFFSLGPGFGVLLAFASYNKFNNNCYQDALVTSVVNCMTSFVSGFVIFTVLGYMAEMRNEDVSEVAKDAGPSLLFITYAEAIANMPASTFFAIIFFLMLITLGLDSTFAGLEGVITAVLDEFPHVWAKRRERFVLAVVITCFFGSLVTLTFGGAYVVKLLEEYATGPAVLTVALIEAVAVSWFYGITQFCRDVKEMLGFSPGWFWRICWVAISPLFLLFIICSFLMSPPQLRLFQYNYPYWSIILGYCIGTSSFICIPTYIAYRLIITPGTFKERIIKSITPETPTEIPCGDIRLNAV
T2 sequence (P23975 whole entry): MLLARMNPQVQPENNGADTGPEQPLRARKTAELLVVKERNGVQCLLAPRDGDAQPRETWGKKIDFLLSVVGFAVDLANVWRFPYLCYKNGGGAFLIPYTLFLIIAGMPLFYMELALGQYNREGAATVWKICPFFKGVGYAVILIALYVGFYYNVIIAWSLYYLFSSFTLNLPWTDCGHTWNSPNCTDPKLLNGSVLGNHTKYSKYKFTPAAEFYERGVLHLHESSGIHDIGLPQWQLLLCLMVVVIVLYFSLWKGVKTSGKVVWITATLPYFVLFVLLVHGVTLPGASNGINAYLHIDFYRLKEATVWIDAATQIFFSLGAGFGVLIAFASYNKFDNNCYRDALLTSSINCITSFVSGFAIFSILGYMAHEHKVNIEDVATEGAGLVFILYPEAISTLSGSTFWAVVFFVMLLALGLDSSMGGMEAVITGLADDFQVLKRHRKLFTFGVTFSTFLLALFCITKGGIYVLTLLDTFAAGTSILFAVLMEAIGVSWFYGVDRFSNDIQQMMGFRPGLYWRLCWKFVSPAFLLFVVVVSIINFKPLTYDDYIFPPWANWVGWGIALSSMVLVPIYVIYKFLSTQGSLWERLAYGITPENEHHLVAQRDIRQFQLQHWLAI

IC50 [1]: 1550 nM | Ki [1]: 1120 nM
Compound: CN(CCCN1c2ccccc2CCc2ccccc21)CC(=O)c1ccc(Cl)cc1 [compound 5, lofepramine, reference compound]

IC50 [1]: 12 nM | Ki [1]: 8.82 nM
Compound: CN(C)CCCN1c2ccccc2CCc2ccc(N=[N+]=[N-])cc21 [compound 11, 3-(3-azido-10,11-dihydro-5H-dibenzo[b,f]azepin-5-yl)-N,N-dimethyl propan-1-amine]

IC50 [1]: 85.1 nM | Ki [1]: 62.4 nM
Compound: CNCCCN1c2ccccc2CCc2ccc(N=[N+]=[N-])cc21 [compound 15, 3-(3-azido-10,11-dihydro-5H-dibenzo[b,f]azepin-5-yl)-N-methylpro-pan-1-amine]

covalent labelling of rSERT by PAL and visualization by CuAAC ([2]; rSERT-enriched material, UV-light 312 nm): interacts predominantly with rSERT | IC50 [1]: 30.2 nM | Ki [1]: 22.2 nM | Ki [4]: 115 nM | Ki ([5]; read-out: Ki, DAT): 1640 nM | Ki ([5]; three independent experiments, each in triplicates, read-out: pKi ±SEM, DAT (converted)): 1580 nM | drop in affinity to SERT, MSBA versus RBA ([6]; Ki 103 nM (MSBA, human) vs 22.2 nM (RBA, rat)): 4.6 fold | Ki ([6]; MSBA, read-out: Ki, SERT): 103 nM
Compound: C#CCCN(C)CCCN1c2ccccc2CCc2ccc(N=[N+]=[N-])cc21 [compound 17, N-(3-(3-azido-10,11-dihydro-5H-dibenzo[b,f]azepin-5-yl)propyl)-N-methylbut-3-yn-1-amine]
covalent labelling of rSERT in living cells [3]: forms covalent bonds with rSERT after UV-light exposure in living cells

decrease in binding signal of 17 at enriched rSERT by competitor [2]: does not | decrease in binding signal of 17 at enriched rSERT by competitor ([2]; listed as MRT): no effect
Compound: CN1CCN2c3ncccc3Cc3ccccc3C2C1 (centres unmarked) [mirtazapine]
